Source: ChEMBL document CHEMBL3392924, “MMV box selection for compounds with potential use in combination with artemisinin using S. cerevisiae”

The compounds below were run on Saccharomyces cerevisiae (assay: Assay utilized the disc diffusion method with the observance of a clear zone indicating inhibition of growth. Synthetic complete medium containing 3% glycerol as a carbon source (SCG) was used in each assay. 10 uL of each compound was added to a paper disc which was placed on SCG and SCG+Artemisinin (0.2 uM) plates seeded with 10e6 yeast cells (WC081 strain: Mat a, leu2 delta 0, lys2 delta 0, ura3 delta 0, his3 delta 1, pdr1 delta::HIS3, pdr3 delta::kanMX4, derived from BY4742, regulators of Multi-drug resistance transporters have been deleted to enhance toxicity of compounds). Plates were incubated at 30 degrees C for 5 days and clear zones were measured. Compounds that produced a larger clear zone in the presence of artemisinin was considered to have an additive interaction with artemisinin. Results are reported as diameter of clear zone on SCG+artemisinin plates - diameter of clear zone on SCG plates without artemisinin.). Conditions: in vivo, 120 h.
Type: organism-based

| Structure (SMILES) | Diameter of inhibition zone |
| --- | --- |
| CN1CCN(c2ccc(Nc3c4ccccc4nc4ccccc34)cc2)CC1 | 0 mm |
| CN(C)CCCNc1c2ccccc2nc2ccccc12 | 0 mm |
| CCN1CCCC1CNc1[nH]cnc2c3cc(Cl)ccc3nc1-2 (centres undefined) | 0 mm |
| COc1ccc(-c2c(C)nn3c(N)c(C#N)cnc23)cc1OC | 0 mm |
| CSC1=NC(=Nc2c(C)cccc2C)C2(CCC(C(C)(C)C)CC2)N1c1ccc(Cl)cc1 (centres undefined) | 0 mm |
| C[n+]1c2ccccc2nc2ccc(NCCO)cc21 | 0 mm |
| Cc1cc(C)cc(Nc2cc(C)nc3nc(C(F)(F)F)nn23)c1 | 0 mm |
| O=C(NCC(c1ccsc1)N1CCCCCC1)c1ccc(C(F)(F)F)cc1 (centres undefined) | 0 mm |
| COc1ccc(-c2cc3c(SCC(=O)Nc4cc(C(F)(F)F)ccc4Cl)nccn3n2)cc1 | 0 mm |
| Cc1ccc(-c2cc3c(SCC(=O)Nc4cc(C(F)(F)F)ccc4Cl)nccn3n2)cc1 | 0 mm |
| CCN(CC)CCNc1ncnc2c1[nH]c1ccc(Cl)cc12 | 0 mm |
| CCOC(=O)c1cnc2ccc(CC)cc2c1O | 0 mm |
| Cc1ccc(-c2cc3c(nn2)-c2ccccc2C3=O)cc1 | 0 mm |
| CCN(CC)CCNc1ccnc2cc(Cl)ccc12 | 0 mm |
| CCCCCC(=O)N1c2ccccc2N=C2CC(c3ccc(OC)c(OC)c3)CC(O)=C2C1c1ccc(C(F)(F)F)cc1 (centres undefined) | 0 mm |
| Cc1cc(Nc2ccc3ccccc3c2)n2ncnc2n1 | 7 mm |
| Cc1cc(NCCN2CCCCC2)c2ccc3ccccc3c2n1 | 0 mm |
| COc1ccc(-n2ccnc2SCC(=O)Nc2cc(C)ccc2C)c(OC)c1 | 0 mm |
| CCN1CCN(Cc2ccc(NC(=O)c3cc4ccc5cccnc5c4[nH]3)cc2)CC1 | 0 mm |
| COc1ccc(-c2nc(NC(=O)CS(=O)(=O)c3ccc(F)cc3)sc2C)cc1 | 0 mm |
| O=C(O)C1Cc2c([nH]c3ccccc23)C(c2ccc(Cl)cc2Cl)N1 (centres undefined) | 0 mm |
| Cc1ccc(N2C(=O)C3C(C2=O)C2(c4ccccc4)C(=O)C3(c3ccccc3)C(c3ccccc3)=C2c2ccccc2)cc1 (centres undefined) | 0 mm |
| CCc1c(C)c(=N)c2ccccc2n1C.I | 0 mm |
| COc1cccc(NC(=O)[C@H](C(C)C)n2c(=O)[nH]c3ccccc3c2=O)c1 | 0 mm |
| CCOC(=O)c1cn(CC)c2cc(N(C)CCc3ccc(OC)c(OC)c3)c(F)cc2c1=O | 0 mm |
| CCC(c1ccccc1)c1nn2c(-c3cccs3)nnc2s1 (centres undefined) | 0 mm |
| CC(C)(C)c1ccc(O)c(CNC2CCCCC2)c1 | 0 mm |

| Structure (SMILES) | Diameter of inhibition zone |
| --- | --- |
| O=[N+]([O-])c1ccc(C=NNc2nc3ccccc3[nH]2)cc1 | 0 mm |
| CCOc1cc2c(cc1OCC)C(c1cc(OC)c(O)cc1Cl)NCC2 (centres undefined) | 0 mm |
| CC1CN(C(=O)c2sc3ccccc3c2Cl)CC(C)O1 (centres undefined) | 0 mm |
| CN(C)c1ccc(C=Cc2nc(=O)c3ccccc3o2)cc1 | 0 mm |
| COc1ccc(C2=C(c3ccc(OC)cc3)C3(c4ccccc4)C(=O)C2(c2ccccc2)C2C(=O)N(c4ccc(C)cc4)C(=O)C23)cc1 (centres undefined) | 0 mm |
| CCOC(=O)c1c(NC(=O)c2ccccc2)sc2c(O)c(CN(CC)CC)ccc12 | 0 mm |
| CCOC(=O)C1=C(c2ccccc2)N=c2sc(=Cc3cc(C)n(-c4ccc(F)cc4)c3C)c(=O)n2C1c1cccc(OC)c1OC (centres undefined) | 0 mm |
| CCC1(C)CC(CCNCc2ccccc2O)(c2ccc(C)cc2)CCO1 (centres undefined) | 0 mm |
| OC(CNC1CCCCC1)Cn1c2ccccc2c2ccccc21 (centres undefined) | 0 mm |
| Cc1cc(Nc2ccc(C)c(Cl)c2)n2nc(C(F)(F)F)nc2n1 | 0 mm |
| COc1cccc(C=Cc2nc(=O)c3ccccc3o2)c1OC | 0 mm |
| CCCN(CCC)CC(O)COc1ccccc1C(=O)Nc1ccccc1 (centres undefined) | 0 mm |
| Fc1ccc2[nH]c3c(NCCCN4CCOCC4)ncnc3c2c1 | 0 mm |
| COc1ccc(C(=O)Nc2nonc2-c2ccc(OC)c(OC)c2)cc1Cl | 0 mm |
| COc1ccc(C=C2SC(=N)N(c3ccccc3OC)C2=O)cc1 | 0 mm |
| COc1ccc(NC(=O)C2c3ccccc3C(=O)N(CC(C)C)C2c2cccs2)cc1Cl (centres undefined) | 0 mm |
| CCOC(=O)c1c(C)n(-c2ccc(Cl)cc2)c2ccc(OC(=O)C=Cc3ccccc3)cc12 | 0 mm |
| COc1ccc2c(c1)OC(O)(C(F)(F)C(F)(F)F)CC2=O (centres undefined) | 0 mm |
| C=CC12CCN(CC1)C(C(O)c1ccnc3ccc(OC)cc13)C2.Cl (centres undefined) | 0 mm |
| Cc1ccc(-c2cc3nc4c(c(O)n3n2)CCCC4)cc1 | 0 mm |
| Cc1cccc(Nc2nc(N)c3ccccc3n2)c1.Cl | 0 mm |
| CCn1c(CN2CCN(Cc3ccccc3)CC2)nc2cc(NC(=O)c3cccs3)ccc21 | 0 mm |
| COc1ccccc1CNC(=O)CCn1c(=O)[nH]c2ccccc2c1=O | 0 mm |
| c1ccc2cc3c(Nc4ccc(N5CCOCC5)cc4)ccnc3cc2c1 | 0 mm |
| Cc1cc(C)c2c(c1)OCN(Cc1ccccc1Cl)C2 | 0 mm |
| COc1cc(OC)c(N(C)C(=O)c2cc3c(s2)-c2ccccc2S(=O)(=O)C3)cc1Cl | 0 mm |
| COc1ccccc1NC1=C(N2CCCCC2)C(=O)c2ccccc2C1=O | 0 mm |

| Structure (SMILES) | Diameter of inhibition zone |
| --- | --- |
| CCOC(=O)c1cn(CC)c2cc(N3CCCCC3)c(F)cc2c1=O | 0 mm |
| CCCc1cc(O)c2c3c(c(=O)oc2c1)CN(C)CC3 | 0 mm |
| Cc1cc(NC(=O)C2c3ccccc3C(=O)N(CC(C)C)C2c2cccs2)no1 (centres undefined) | 0 mm |
| Cl.Oc1ccccc1CNCC12CC3CC(CC(C3)C1)C2 | 0 mm |
| CNCCCNc1ccnc2cc(Cl)ccc12 | 0 mm |
| COc1ccccc1CNC(=O)CCn1c(=O)[nH]c2ccsc2c1=O | 0 mm |
| COc1ccc(Br)cc1C1Nc2ccc3ccccc3c2C2=C1C(=O)CC(c1ccccc1)C2 (centres undefined) | 0 mm |
| Cc1cc(C=C2SC(=Nc3ccccc3)N(C3CCCC3)C2=O)c(C)n1-c1ccc(Cl)cc1 | 0 mm |
| CC1CCN(Cc2ccc(NC(=O)c3cc4ccc5cccnc5c4[nH]3)cc2)CC1 | 0 mm |
| CCOc1ccc(-c2nonc2NC(=O)c2cccc(C)c2)cc1OCC | 0 mm |
| CCc1ccc(Nc2cc(C)c3ccc(O)cc3n2)cc1.Cl | 0 mm |
| COc1ccc2c(=O)cc(C(Cl)(Cl)Cl)oc2c1 | 0 mm |
| CSc1ccccc1C(=O)Nc1nc(-c2ccccn2)cs1 | 3 mm |
| COc1ccc(-c2nc3cc(Cc4ccc5[nH]c(-c6ccc(OC)cc6)nc5c4)ccc3[nH]2)cc1 | 0 mm |
| CCOC(=O)c1ccc2[nH]c(-c3ccccc3)cc(=O)c2c1 | 0 mm |
| Cc1cc(Nc2ccc(Cl)cc2)n2nc(C(F)(F)F)nc2n1 | 0 mm |
| COc1ccc(C(C)=O)cc1N1C(=O)C2C(C1=O)C1(c3ccccc3)C(=O)C2(c2ccccc2)C(c2ccc(C)cc2)=C1c1ccc(C)cc1 (centres undefined) | 0 mm |
| CCCCCCOC(=O)C1=C(C)NC(=O)NC1c1ccccc1F (centres undefined) | 0 mm |
| Cc1ccc(N2C3c4ccccc4N(S(=O)(=O)c4ccc(C)cc4)C2c2ccccc2N3S(=O)(=O)c2ccc(C)cc2)cc1 | 0 mm |
| CCCc1c(CC)c(=N)c2ccccc2n1C | 0 mm |
| Cc1ccc(Nc2nc(NCCO)c3ccccc3n2)cc1C | 0 mm |
| CCOC(=O)c1cnc2c(C)cc(C)cc2c1Nc1ccc(OC)c(OC)c1 | 0 mm |
| COc1ccc(NC(=O)C2c3ccccc3C(=O)N(CC(C)C)C2c2cccs2)cc1 (centres undefined) | 0 mm |
| c1ccc(Cn2c(N=Nc3c(Nc4ccccc4)ccc4ccccc34)nc3ccccc32)cc1 | 1 mm |
| CN(C)c1ccc(C(O)(c2ccc(N(C)C)cc2)c2ccc(N(C)C)cc2)cc1 [METHYLROSANILINE] | 0 mm |
